Among the test systems are BT-549; DLD-1; DMS-114; DMS-273; HOP-18; LXFL 529; RXF 631; SNB-78; XF498.
What all share (assay): NCI-60 cell line screen, 48 h

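Protocol summary: plate cells (96-well), add compound at 5 concentrations, incubate 48 h, interpolate endpoints linearly. Abbreviation: GI50, concentration required for 50% inhibition of growth.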 Activity calls are given as the source filed them. No stated cut-off is given here; in the data, active = GI50 up to about 1.1 µM and inactive = higher. Bounds are passed on as bounds.

This is an account of results in ChEMBL document CHEMBL1201862, “PubChem BioAssay data set” (2004).

Regarding `O=C1C(Br)=C(c2ccccc2)C(c2ccccc2)=C1c1ccccc1`, the GI50 with BT-549 was 3.6 µM (inactive); in the assay on DLD-1, 1.82 µM (inactive); in the assay on DMS-114 it was 1.89 µM (inactive); in the assay with DMS-273, 1.79 µM (inactive); in the assay with HOP-18, 4.9 µM (inactive); with LXFL 529 it was 1.5 µM (inactive). Moreover, the values for the GI50 with RXF 631, in the assay with SNB-78 and in the assay on XF498 were 6.49 µM (inactive), 2.12 µM (inactive) and 1.81 µM (inactive), respectively.

With `O=[N+]([O-])c1ccccc1C1N2CCCCC2[C@@H]2c3[nH]c4ccccc4c3CCN12` (stereo partly specified), the GI50 was 14.2 µM (inactive) with DLD-1; 4.34 µM (inactive) with DMS-114; 10.9 µM (inactive) with DMS-273; 36.5 µM (inactive) in the assay on HOP-18; 10.8 µM (inactive) with LXFL 529; 13.2 µM (inactive) in the assay with RXF 631. The GI50 was 15.3 µM (inactive) in the assay on SNB-78 and 16.9 µM (inactive) in the assay with XF498.

As for `O=C(Cc1nc2ccccc2s1)Nc1cccc(C(F)(F)F)c1`, the GI50 is 14.2 µM (inactive) with DLD-1; 15.6 µM (inactive) in the assay on DMS-114; 18.7 µM (inactive) in the assay on DMS-273; 18.5 µM (inactive) in the assay on HOP-18; 13.4 µM (inactive) in the assay with LXFL 529; 13.8 µM (inactive) in the assay on RXF 631. Also, the GI50 in the assay on XF498 was 14.8 µM (inactive).

For the molecule `CCOC(=O)c1ccc(/C(C)=N/NC(N)=S)cc1`, the GI50 in the assay on DLD-1, with DMS-114, in the assay with DMS-273, in the assay on HOP-18, in the assay on LXFL 529 and in the assay with RXF 631 was > 100 µM (inactive) throughout. The GI50 in the assay on SNB-78 and in the assay on XF498 was > 100 µM (inactive) in each case.

For `CCCCOCN/C(N)=N/C#N`, the GI50 was > 100 µM (inactive) in the assay with DLD-1; > 100 µM (inactive) in the assay with DMS-114; 68.7 µM (inactive) in the assay on DMS-273; > 100 µM (inactive) in the assay on HOP-18; > 100 µM (inactive) in the assay with LXFL 529; > 100 µM (inactive) in the assay on RXF 631. The GI50 with SNB-78 and with XF498 was > 100 µM (inactive) throughout.

For the molecule `COC(=O)CCC(=O)C(C#N)c1ccc(Cl)cc1Cl` (stereo unspecified), the GI50 in the assay with DLD-1, with DMS-273, in the assay with LXFL 529, in the assay on RXF 631, with SNB-78 and with XF498 was > 100 µM (inactive) throughout.

For `CCOC(=O)NC(=O)c1cn(CCCOC(=O)CCCCCCCCCCC(=O)OCCCn2cc(C(=O)NC(=O)OCC)c(=O)[nH]c2=O)c(=O)[nH]c1=O`, the GI50 in the assay with DLD-1 was > 100 µM (inactive); in the assay on HOP-18 it was > 100 µM (inactive); in the assay on LXFL 529, > 100 µM (inactive); in the assay on RXF 631 it was 37.3 µM (inactive); in the assay with SNB-78, > 100 µM (inactive); in the assay on XF498 it was > 100 µM (inactive).

As for `CCCCCCCCCC1CC(=O)OC2=C1C(=O)CCC2` (stereo unspecified), the GI50 in the assay on DLD-1, in the assay on DMS-114, in the assay with DMS-273, in the assay on HOP-18, in the assay on LXFL 529 and in the assay with RXF 631 was > 100 µM (inactive) in each case. Also, the GI50 in the assay on SNB-78 and in the assay on XF498 was > 100 µM (inactive) throughout.

Consider `Clc1ccc(Cc2nc3ccccc3s2)c(Cl)c1`, for which the GI50 was 15.3 µM (inactive) in the assay on DLD-1; 17 µM (inactive) in the assay with DMS-114; 18 µM (inactive) in the assay on DMS-273; 16 µM (inactive) in the assay on HOP-18; 16.8 µM (inactive) in the assay with LXFL 529; 16.4 µM (inactive) in the assay with RXF 631. Besides, the GI50 in the assay with XF498 is 13.6 µM (inactive).

As for `O=[N+]([O-])c1cccc(C(O)/C(=N/Nc2ccccc2)C2Nc3ccc([N+](=O)[O-])cc3N=C2O)c1` (stereo unspecified), the GI50 with DLD-1 is > 100 µM (inactive); with DMS-114, 24.9 µM (inactive); in the assay with DMS-273, 36.8 µM (inactive); in the assay with LXFL 529, 37.6 µM (inactive); with RXF 631, > 100 µM (inactive); in the assay with SNB-78, > 100 µM (inactive). Further, the GI50 in the assay on XF498 was > 100 µM (inactive).

For `O=C(c1ccccc1)c1ccc2cccc(O)c2n1`, the GI50 was 27 µM (inactive) with DLD-1; 10.9 µM (inactive) with DMS-114; 28.4 µM (inactive) in the assay with DMS-273; 36.1 µM (inactive) in the assay with HOP-18; 55.1 µM (inactive) with RXF 631; 46.5 µM (inactive) in the assay with SNB-78. In the assay on XF498, the GI50 is 29.2 µM (inactive).

For the molecule `O=[N+]([O-])c1ccc(C2=Nc3ccccc3[S+]([O-])C(c3ccccc3)C2)cc1` (stereo unspecified), the GI50 was 18.6 µM (inactive) with DLD-1; 19.1 µM (inactive) in the assay with DMS-114; 22.6 µM (inactive) with DMS-273; 24.9 µM (inactive) in the assay on HOP-18; 13.5 µM (inactive) in the assay with LXFL 529; 17.1 µM (inactive) in the assay with RXF 631. Further, the GI50 in the assay with XF498 is 21.4 µM (inactive).

On to `COc1cc2c(c(OC)c1OC)-c1ccc(OC)c(=O)cc1[C@@H](NC(=O)c1ccccc1)CC2`, for which the GI50 in the assay on DLD-1 was < 0.0124 µM (active); with DMS-114, < 0.01 µM (active); in the assay on DMS-273 it was < 0.01 µM (active); in the assay with HOP-18, 97.5 µM (inactive); in the assay with LXFL 529, < 0.01 µM (active); in the assay with RXF 631, 0.0115 µM (active). Moreover, the GI50 in the assay on SNB-78 and in the assay with XF498 was < 0.01 µM (active) throughout.
